Laboratory results: ChEMBL document CHEMBL4354831, “Novel Cell-Penetrating Peptide Conjugated Proteasome Inhibitors: Anticancer and Antifungal Investigations” (J Med Chem, 2020)
The source made the active and inactive calls. The calls are words filed in the database; no cut-off is given here. Peptide text beside a SMILES is read from it.

Assays:
BE(2)-C [1] = assay: Antiproliferative activity against human BE(2)-C cells assessed as reduction in cell viability after 48 hrs by MTT assay; format: functional, cell-based
HeLa [2] = assay: Antiproliferative activity against human HeLa cells assessed as reduction in cell viability in presence of cisplatin after 48 hrs by MTT assay; format: functional, cell-based
BE(2)-C [3] = assay: Antiproliferative activity against human BE(2)-C cells assessed as reduction in cell viability in presence of cisplatin after 48 hrs by MTT assay; format: functional, cell-based
HeLa [4] = assay: Synergistic antiproliferative activity against human HeLa cells assessed as FICI in presence of cisplatin after 48 hrs by MTT assay; format: functional
BE(2)-C [5] = assay: Synergistic antiproliferative activity against human BE(2)-C cells assessed as FICI in presence of cisplatin after 48 hrs by MTT assay; format: functional
HeLa [6] = assay: Ratio of IC50 for antiproliferative activity against human HeLa cells to IC50 for antiproliferative activity against human HeLa in presence of cisplatin; format: functional
BE(2)-C [7] = assay: Ratio of IC50 for antiproliferative activity against human BE(2)-C cells to IC50 for antiproliferative activity against human BE(2)-C cells in presence of cisplatin; format: functional
20S proteasome = assay: Inhibition of human 20S proteasome using Suc-LLVY-AMC as substrate measured every 5 mins for 120 mins by fluorescence based assay; format: protein-complex assay
[8] = biological target: T1, 20S proteasome (Homo sapiens) (UniProt P49721+P20618+P28074+P28062+P28065+P28072+P25786+P25787+P25788+P25789+P28066+P60900+O14818+Q8TAA3+P40306+A5LHX3+P49720+P28070+Q99436); assay: Inhibition of 20S proteasome in human BE(2)-C cells at 2xIC50 using LLVY-R110 peptide as substrate measured up to 36 hrs by fluorescence based assay; format: cell-based
[9] = biological target: T1, 20S proteasome (Homo sapiens); assay: Potency index, ratio of ixazomib IC50 to compound IC50 for inhibition of human 20S proteasome using Suc-LLVY-AMC as substrate measured every 5 mins for 120 mins by fluorescence based assay; format: protein-complex assay
BE(2)-C [10] = assay: Induction of membrane disruption in human BE(2)-C cells assessed as red fluorescence at 2xIC50 after 24 hrs by SYTO9/PI-staining based inverted fluorescence microscopic analysis; details: Cell membrane
HeLa [11] = assay: Induction of membrane disruption in human HeLa cells assessed as membrane lysis at 2xIC50 after 24 hrs by SYTO9/PI-staining based inverted fluorescence microscopic analysis; details: Cell membrane
HeLa [12] = assay: Induction of membrane disruption in human HeLa cells assessed as membrane blebbing at 2xIC50 after 24 hrs by SYTO9/PI-staining based inverted fluorescence microscopic analysis; details: Cell membrane
BE(2)-C [13] = assay: Induction of membrane disruption in human BE(2)-C cells assessed as membrane blebbing at 2xIC50 after 24 hrs by SYTO9/PI-staining based inverted fluorescence microscopic analysis; details: Cell membrane
BE(2)-C [14] = assay: Induction of apoptosis in human BE(2)-C cells assessed as DNA damage at 2xIC50 after 24 hrs by SYTO9/PI-staining based inverted fluorescence microscopic analysis; format: functional, cell-based
HeLa [15] = assay: Induction of apoptosis in human HeLa cells assessed as condensed chromatin at 2xIC50 after 24 hrs by Hoechst-33342 staining based inverted fluorescence microscopic analysis; format: functional, cell-based
BE(2)-C [16] = assay: Induction of apoptosis in human BE(2)-C cells at 2xIC50 after 24 hrs by Annexin-V alexa fluor 488/PI staining based fluorescence microscopic analysis; format: functional, cell-based
BE(2)-C [17] = assay: Induction of necrosis in human BE(2)-C cells at 2xIC50 after 24 hrs by Annexin-V alexa fluor 488/PI staining based fluorescence microscopic analysis; format: functional, cell-based
HeLa [18] = assay: Induction of apoptosis in human HeLa cells assessed as apoptotic cells at 2xIC50 after 24 hrs by Alexa flour 488 annexin V/PI- staining based flow cytometric analysis relative to control; format: functional
BE(2)-C [19] = assay: Induction of apoptosis in human BE(2)-C cells assessed as necrotic cells at 2xIC50 after 24 hrs by Alexa flour 488 annexin V/PI- staining based flow cytometric analysis relative to control; format: functional
HeLa [20] = assay: Induction of apoptosis in human HeLa cells assessed as DNA damage at 2xIC50 after 24 hrs by Hoechst-33342 staining based inverted fluorescence microscopic analysis; format: functional, cell-based
HeLa [21] = assay: Induction of ROS generation in human HeLa cells after 24 hrs by DCFH-DA staining based fluorescence analysis; format: functional, cell-based
BE(2)-C [22] = assay: Induction of ROS generation in human BE(2)-C cells after 24 hrs by DCFH-DA staining based fluorescence analysis; format: functional, cell-based
HeLa [23] = assay: Induction of ROS generation in human HeLa cells at 0.4 to 200 uM after 24 hrs in presence of ROS quencher, ascorbic acid by DCFH-DA staining based fluorescence analysis; format: functional, cell-based
HeLa [24] = assay: Induction of ROS generation in human HeLa cells at 2xIC50 by DCFH-DA staining based fluorescence analysis; format: functional, cell-based; details: TDE = time-dependent effect
BE(2)-C [25] = assay: Induction of ROS generation in human BE(2)-C cells at 2xIC50 by DCFH-DA staining based fluorescence analysis; format: functional, cell-based; details: TDE = time-dependent effect
BE(2)-C [26] = assay: Induction of ROS generation in human BE(2)-C cells at 2xIC50 measured up to 24 hrs in presence of ROS quencher, ascorbic acid by DCFH-DA staining based fluorescence analysis; format: functional, cell-based
HeLa [27] = assay: Induction of pore formation in human HeLa cell membrane at 2xIC50 after 12 hrs by SEM analysis; format: cell-based
BE(2)-C [28] = assay: Induction of pore formation in human BE(2)-C cell membrane at 2xIC50 after 12 hrs by SEM analysis; format: functional, cell-based
HeLa [29] = assay: Induction of membrane blebbing in human HeLa cells at 2xIC50 after 12 hrs by SEM analysis; format: cell-based; details: Cell membrane
BE(2)-C [30] = assay: Induction of membrane blebbing in human BE(2)-C cells at 2xIC50 after 12 hrs by SEM analysis; format: cell-based; details: Cell membrane
Candida albicans [31] = assay: Potentiation of amphotericin B-induced antifungal activity against Candida albicans SC5314 assessed as amphotericin MIC after 24 to 48 hrs by checker board assay; format: functional
Candida albicans [32] = assay: Antifungal activity against Candida albicans SC5314 in presence of amphotericin B after 24 to 48 hrs by checker board assay; format: functional
Candida albicans [33] = assay: Synergistic antifungal activity against Candida albicans SC5314 assessed as FICI in presence of amphotericin B after 24 to 48 hrs by checker board assay; format: functional
Candida albicans [34] = assay: Ratio of MIC for antifungal activity against Candida albicans SC5314 to MIC for antifungal activity against Candida albicans SC5314 in presence of amphotericin B after 24 to 48 hrs by checker board assay; format: functional
Candida albicans [35] = assay: Potentiation of amphotericin B-induced antifungal activity against Candida albicans SC5314 assessed as fold reduction in amphotericin MIC after 24 to 48 hrs by checker board assay relative to amphotericin alone; format: functional
Candida albicans [36] = assay: Antibiofilm activity against Candida albicans SC5314 assessed as inhibition of biofilm formation after 24 hrs by XTT-dye based assay; format: functional
Candida albicans [37] = assay: Induction of hyphal disruption in Candida albicans SC5314 assessed as hyphal debris at 2xMBEC by SEM analysis; format: organism-based; details: Hyphae
[38] = Hemolytic activity in mouse RBC at 500 uM after 1 hr relative to control; format: ADME, cell-based, Erythrocyte; details: red blood cells (erythrocytes), read-out: Activity

SMILES | IC50 (BE(2)-C [1]) | IC50 (HeLa [2]) | IC50 (BE(2)-C [3]) | fractional inhibitory concentration index (FICI) (HeLa [4]) | fractional inhibitory concentration index (FICI) (BE(2)-C [5]) | Ratio IC50 (HeLa [6]) | Ratio IC50 (BE(2)-C [7]) | IC50 (20S proteasome) | inhibition [8] | Ratio IC50 [9] | Activity (BE(2)-C [10]) | Activity (HeLa [11]) | Activity (HeLa [12]) | Activity (BE(2)-C [13]) | Activity (BE(2)-C [14]) | Activity (HeLa [15]) | Activity (BE(2)-C [16]) | Activity (BE(2)-C [17]) | Activity (HeLa [18]) | Activity (BE(2)-C [19]) | other results
CC(=O)N[C@@H](Cc1ccc(O)cc1)C(=O)NCC(=O)N[C@@H](CCCNC(=N)N)C(=O)N[C@@H](CCCCN)C(=O)N[C@@H](CCCCN)C(=O)N[C@@H](CCCNC(=N)N)C(=O)N[C@@H](CCCNC(=N)N)C(=O)N[C@@H](CCC(N)=O)C(=O)N[C@@H](CCCNC(=N)N)C(=O)N[C@@H](CCCNC(=N)N)C(=O)N[C@@H](CCCNC(=N)N)C(=O)NCC(=O)NCC(=O)NCC(=O)N[C@@H](CC(C)C)C(=O)N[C@@H](CC(C)C)C(=O)N[C@H](C=O)CC(C)C (Ac-YGRKKRRQRRRGGGLLL-aldehyde) | 10.3 µM | 1900 nM | 4190 nM | 0.34 | 0.79 | 5 | 2.5 | 2.5 nM | Active | 6 | Active | Active | Active | Active | Active | Active | Active | Active | 72.9% | 64.9% | Activity (HeLa [20]): Active; Activity (HeLa [21]): Dose-dependent effect; Activity (BE(2)-C [22]): Dose-dependent effect; Activity (HeLa [23]): inactive; Activity (HeLa [24]): Tde; Activity (BE(2)-C [25]): Tde; Activity (BE(2)-C [26]): inactive; Activity (HeLa [27]): Active; Activity (BE(2)-C [28]): Active; Activity (HeLa [29]): Active; Activity (BE(2)-C [30]): Active; MIC (Candida albicans [31]): 0.25 µM; MIC (Candida albicans [32]): 6.25 µM; fractional inhibitory concentration index (FICI) (Candida albicans [33]): 0.36; Ratio (Candida albicans [34]): 5; fold change (FC) (Candida albicans [35]): 6; MBIC (Candida albicans [36]): 15.6 µM; Activity (Candida albicans [37]): Active; hemolysis at 1 h, 500 µM [38]: 1%
CC(=O)N[C@@H](Cc1ccc(O)cc1)C(=O)NCC(=O)N[C@@H](CCCNC(=N)N)C(=O)N[C@@H](CCCCN)C(=O)N[C@@H](CCCCN)C(=O)N[C@@H](CCCNC(=N)N)C(=O)N[C@@H](CCCNC(=N)N)C(=O)N[C@@H](CCC(N)=O)C(=O)N[C@@H](CCCNC(=N)N)C(=O)N[C@@H](CCCNC(=N)N)C(=O)N[C@@H](CCCNC(=N)N)C(=O)NCC(=O)NCC(=O)NCC(=O)N[C@@H](Cc1ccc(O)cc1)C(=O)N[C@@H](CC(C)C)C(=O)N[C@@H](Cc1ccccc1)C(=O)N[C@H](C=O)CC(C)C (Ac-YGRKKRRQRRRGGGYLFL-aldehyde) | 4.7 µM | 1160 nM | 1580 nM | 0.33 | 0.49 | 4 | 4 | 4.28 to 4.3 nM | Active | 4 | Active | Active | Active | Active | Active | Active | Active | Active | 80.5% | 65.4% | Activity (HeLa [20]): Active; Activity (HeLa [21]): Dose-dependent effect; Activity (BE(2)-C [22]): Dose-dependent effect; Activity (HeLa [23]): inactive; Activity (HeLa [24]): Tde; Activity (BE(2)-C [25]): Tde; Activity (BE(2)-C [26]): inactive; Activity (HeLa [27]): Active; Activity (BE(2)-C [28]): Active; Activity (HeLa [29]): Active; Activity (BE(2)-C [30]): Active; MIC (Candida albicans [31]): 0.25 µM; MIC (Candida albicans [32]): 3.12 µM; fractional inhibitory concentration index (FICI) (Candida albicans [33]): 0.35; Ratio (Candida albicans [34]): 5; fold change (FC) (Candida albicans [35]): 6; MBIC (Candida albicans [36]): 7.8 µM; Activity (Candida albicans [37]): Active; hemolysis at 1 h, 500 µM [38]: 12%
